Test system: heart muscle
Experiment: Inhibition of heart muscle necrosis in rat caused by clogging of the coronary artery and subsequent blood reperfusion (tissue CPK)
Type: in vivo
Conditions: male SD rats; 6 mg/kg intravenously 5 minutes before ligature; ischemic area 2 hours after reperfusion; p < 0.05 vs control
Method: 1 (4) Activity for inhibiting the heart muscle necrosis in rat caused by clogging of the coronary artery and subsequent blood reperfusion
Male rats of SD strain (7-10 week old, 250-350 g) were used in this test. The activity of creatine phosphokinase (CPK) in tissue was used as an indication of heart muscle necrosis.
A test compound was dissolved in a small amount of 1N aqueous NaOH solution, then diluted with a physiological saline solution, and administered at a dose of 1 ml/kg of body weight. Each rat was anesthetized with pentobarbital and thoracotomized under artifical respiration; the descending branch before left coronary artery was ligated with a piece of silk string for 12 minutes; then, the blood was reperfused. Thereafter, the thoracotomized chest was closed and the rat was waken from anesthesia. 2 hours after reperfusion, the heart was enucleated under anesthesia; only the ischemic area was homogenized; and the activity of CPK contained therein was measured. The test compound was intravenously administered at a dose of 6 mg/kg 5 mintues before ligature of the coronary artery.
The results on the NaOH/physiological saline solution-administered group as a control and the compound-administered group are shown in Table 19.

With `CCOc1ccc(-c2nc(-c3ccc(O)c(C(=O)O)c3)cs2)cc1OCC` [compound 62, 4-(3-Carboxy-4-hydroxyphenyl)-2-(3,4-diethoxy-phenyl)thiazole] the “Activity of creatine phosphokinase in tissue, Mean ± S.E.” value was 19.53 ± 1.56 U/mg of protein.

Test system: human neutrophilic leukocytes
Experiment: Inhibition of superoxide radical (O2-) generation in FMLP-stimulated human neutrophilic leukocytes (ferricytochrome C method)
Type: cell-based
Conditions: Homo sapiens, Leukocyte, Table 16; comparative test present compounds vs prior art compounds; NE = not effective
Outline: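 Neutrophils were isolated from healthy adult blood by dextran-hypotonic treatment and Ficoll-Paque gradient. Compounds in DMSO were pre-incubated with the cells at 37° C before FMLP stimulation. O2− generation was measured by ferricytochrome C reduction.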

`CCOc1ccc(-c2nc(-c3ccc(O)c(C(=O)O)c3)cs2)cc1OCC` [compound 62, 4-(3-Carboxy-4-hydroxyphenyl)-2-(3,4-diethoxy-phenyl)thiazole] showed an IC50 of 10 nM.

Same assay, conditions: Homo sapiens, Leukocyte, pH 7.4, Table 15; O2- generation, 3x10^-7 M FMLP, cytochalasin B, 37° C., pH 7.4

`CCOc1ccc(-c2nc(-c3ccc(O)c(C(=O)O)c3)cs2)cc1OCC` [compound 62, 4-(3-Carboxy-4-hydroxyphenyl)-2-(3,4-diethoxy-phenyl)thiazole] gave an IC50 of 10 nM.

Test system: not given
Experiment: not given
Conditions: not given

First: COc1ccc(-c2nc(-c3ccc4c(c3)CCC(=O)N4)co2)cc1OC [Example 137, 2-(3,4-dimethoxyphenyl)-4-(3,4-dihydrocarbostyril-6-yl) oxazole]
Second: COc1ccc(-c2nc(-c3ccc4c(c3)N(C)C(=O)CS4)cs2)cc1OC [Example 143, 2-(3,4-dimethoxyphenyl)-4-(4-methyl-2H-1,4-benzothiazin-3(4H)-one-6-yl)thiazole]
The melting point of the first is higher: 191 to 192 °C for the first, 143.5 to 144 °C for the second.

First: [O-][n+]1cccc(-c2nc(-c3ccccc3)cs2)c1 [Example 139, 3-(4-phenylthiazol-2-yl) pyridine-N-oxide]
Second: COc1ccc(-c2nc(-c3ccc4c(c3)CCCN4C(=O)c3ccccc3)cs2)cc1OC [Example 144, 2-(3,4-dimethoxyphenyl)-4-(1-benzoyl-1,2,3,4-tetrahydroquinolin-6-yl)thiazole]
The melting point of the first is lower: 140 to 141 °C for the first, 152.5 to 153.5 °C for the second.

First: CCOc1ccc(-c2nc(-c3cc(C(=O)O)ccn3)cs2)cc1OCC [Example 516, 2(3,4-diethoxyphenyl)-4-(4-carboxy-2-pyridyl)thiazole]
Second: CCOc1ccc(-c2nc(-c3ccc(N)c(C(=O)O)c3)cs2)cc1OCC [Example 359, 2-(3,4-diethoxyphenyl)-4-(3-carboxy-4-aminophenyl)thiazole]
The melting point of the first is higher: 236.2 to 237.2 °C for the first, 228 to 229 °C for the second.

First: C=CCc1cc(-c2csc(-c3ccc(OCC)c(OCC)c3)n2)cc(C(=O)OC)c1O [Example 353, 2-(3,4-diethoxyphenyl)-4-(3-methoxycarbonyl-4-hydroxy-5-allylphenyl)thiazole]
Second: CCOc1ccc(-c2nc(-c3cc(CCO)c(O)c(C(=O)OC)c3)cs2)cc1OCC [Example 358, 2-(3,4-diethoxyphenyl)-4-[3-methoxycarbonyl-4-hydroxy-5-(2-hydroxyethyl)phenyl]-thiazole]
The melting point of the first is higher: 118 to 119 °C for the first, 113 to 114 °C for the second.

First: CCCCCCCCCOC(=O)c1cc(-c2csc(-c3ccc(OCC)c(OCC)c3)n2)ccc1O [Example 461, 2-(3,4-diethoxyphenyl)-4-(3-nonyloxycarbonyl-4-hydroxyphenyl)thiazole]
Second: CCOc1ccc(-c2nc(-c3ccc(SC(=O)N(C)C)c(C(=O)OC)c3)cs2)cc1OCC [Example 354, 2-(3,4-diethoxyphenyl)-4-(4-dimethylaminocarbonylthio-3-methoxycarbonylphenyl)thiazole]
The melting point of the first is lower: 67 to 68 °C for the first, 108 to 109 °C for the second.

Compared with `CCOc1ccc(C(=O)c2csc(-c3ccc(OCC)c(OCC)c3)n2)cc1OCC` [Example 246, 2-(3,4-diethoxyphenyl)-4-(3,4-diethoxybenzoyl)thiazole], `CCOc1ccc(-c2nc(Cn3cccc3C(C)=O)cs2)cc1OCC` [Example 459, 2-(3,4-diethoxyphenyl)-4-(2-acetyl-1-pyrrolyl)methylthiazole] is lower in melting point: 128 to 129 °C for the first, 123 to 124 °C for the second.

First: CCOc1ccc(-c2nc(C=Cc3ccccc3)cs2)cc1OCC [Example 247, 2-(3,4-diethoxyphenyl)-4-styrylthiazole]
Second: CCOc1ccc(-c2nc(-c3ccc(NCCN4CCCCC4)c(C(=O)OC)c3)cs2)cc1OCC.Cl.Cl
The melting point of the first is higher: 94 to 95 °C for the first, 93 to 94 °C for the second.

`COc1ccc(-c2nc(-c3ccc(O)c(O)c3)cs2)cc1OC.Cl` [Example 1, 2-(3,4-dimethoxyphenyl)-4-(3,4-dihydroxyphenyl) thiazole hydrochloride] showed a melting point of 146 to 148 °C.

In the case of `O=c1[nH]cccc1-c1nc(-c2ccccc2)cs1` [Example 140, 2-(2-oxopyridin-3-yl)4-phenylthiazole], the melting point is reported as 206 to 207 °C (dec.).
In the case of `NC(=O)c1ccc(-c2nc(-c3ccc4c(c3)CCC(=O)N4)cs2)cc1` [Example 148, 2-(4-carbamoylphenyl)-4-(3,4-dihydrocarbostyril-6-yl)thiazole], the melting point is reported as ≥ 300 °C.
